Experimental data reported in patent US20140179681A1, “METHODS AND COMPOSITIONS OF TARGETED DRUG DEVELOPMENT” (priority 2010, published 2014).
Where a name gives a salt, the structure may show the parent alone.

Molecular target: T1, EGFR (Homo sapiens, UniProt P00533)
T1 construct: host or cells: A431
Test: EGFR in-cell Western (ICW) screening protocol (EGFR inhibition assay)
Format: cell-based
Design: ICW 1 / ICW 2 / ICW Avg: unit not given here
Conditions: for ICW Screen: Table 11, % Inhibition of EGF dependent EGFR phosphorylation in A431 cells, compound 125 μM in assay; for ICW Avg / ICW 1 / ICW 2: ICW assay; for ICW Avg: average of runs 1 and 2; for ICW 1: run 1; for ICW 2: run 2
Procedure: The following example describes general EGFR in-cell Western (ICW) screening protocol. Methods are according to Chen et al. (2005) Analytical Biochemistry 338, 136-142 (incorporated herein by reference), except as otherwise noted.
Cell Plates: A431 cells (ATCC # CRL-1555) were grown in Dulbecco's Modified Eagle Medium (DMEM; ATCC #30-2002) supplemented with 10% fetal bovine serum, 105 units/ml pen/strep (Invitrogen #15140155) and 2.1 mM L-glutamine (ATCC #30-2214). Cells were seeded into 96 well tissue culture plates (BD Falcon #353948) at a density of 30,000 cells per well and incubated at 37° C. with 5% CO2 overnight. Two cell plates were prepared for each compound plate.
Serum Starvation: The cells were serum starved prior to compound addition. The media was removed by aspiration and the cells washed with PBS (200 μl/well; Invitrogen #20012-027). The PBS was removed by aspiration and replaced with 200 μl of DMEM (ATCC #30-2002) supplemented with 105 units/ml pen/strep (Invitrogen #15140155) and 2.1 mM 1-glutamine (ATCC #30-2214). The cell plates were incubated at 37° C./5% CO2 for 2 hours.
Compound Plate Preparation: The test compounds were solvated in 100% DMSO (Sigma #472301-2L) at a concentration of 25 mM. Compounds found not to be completely soluble in 100% DMSO at 25 mM were diluted to 10 mM with 100% DMSO and TFA (Fluka #91699) added to a final concentration of 0.2%. 40 μl of test compound was added to the appropriate well of a 96 well plate (Falcon #351190). As controls, 6 μM EGFR kinase inhibitor PD168393 (EMD/Calbiochem #513033) in 100% DMSO and DMSO alone were added to various wells. Prepared compound plates were stored at RT prior to use and at 4° C. long term.
Compound Dilution Plate Preparation: 250 μl of DMEM supplemented with 1 mg/ml BSA (Sigma A3059-10G) was added to the appropriate wells of a 96 well plate to prepare the compound dilution plates. Using a multichannel pipettor, 1.25 μl of compound from the compound plate was transferred into the compound dilution plate.
Compound Addition: The starve media was removed from the cell plates by aspiration. Using a multichannel pipettor, the compound dilution plates were mixed by pipetting up and down three times. 50 μl of mixed, diluted compound was added to each of two rows/columns on each of two cell plates. The cell plates with compound were incubated at 37° C./5% CO2 for 4 hours.
EGF Addition: 20 ng/ml EGF (Upstate #01-107) was prepared in DMEM supplemented with 1 mg/ml BSA. 50 μl of 20 or 0 ng/ml EGF was added to the appropriate wells without the removal of compound. The compound and EGF were mixed by pipetting up and down three times. The plates were incubated at 37° C./5% CO2 for 10 min. In some screening assays the final concentration of EGF used for simulation was 6.6, or 12.5 ng/ml rather than 10 ng/ml.
Fixation and Triton Washing: The EGF+compound was removed by aspiration and 150 μl of freshly prepared Fixation Solution (1×PBS, Sigma P3813-10PK, and 4% Formaldehyde, Pierce #28908) was immediately added. The plates were incubated at RT for 20 min without shaking. The Fixation Solution was removed by aspiration and the plates washed four times with 200 μl each of Triton Wash Solution (1×PBS, Sigma P3813-10PK, and 0.1% Triton X-100, T8787-50ML) for 5 min with gentle shaking.
Blocking and Probing: Following the last Triton Wash, the plates were blocked for 1.5 h at RT with shaking using 150 μl of Odyssey Blocking Buffer (LI-COR #927-40000). The block was removed by aspiration and 50 μl of diluted primary Ab mix was added. The plates were incubated at 4° C. overnight with gentle shaking. The plates were washed five times with 200 μl of PBST (1×PBS, Sigma P3813-10PK, and 0.1% Tween-20, Sigma P9416-50ML) for 5 min each with shaking 50 μl of diluted secondary Ab mix was added and the plates incubated at RT for 1 h with shaking. The plates were washed 5× with 200 μl of PBST for 5 min each with shaking. […]

T1 sequence (P00533 25-1210): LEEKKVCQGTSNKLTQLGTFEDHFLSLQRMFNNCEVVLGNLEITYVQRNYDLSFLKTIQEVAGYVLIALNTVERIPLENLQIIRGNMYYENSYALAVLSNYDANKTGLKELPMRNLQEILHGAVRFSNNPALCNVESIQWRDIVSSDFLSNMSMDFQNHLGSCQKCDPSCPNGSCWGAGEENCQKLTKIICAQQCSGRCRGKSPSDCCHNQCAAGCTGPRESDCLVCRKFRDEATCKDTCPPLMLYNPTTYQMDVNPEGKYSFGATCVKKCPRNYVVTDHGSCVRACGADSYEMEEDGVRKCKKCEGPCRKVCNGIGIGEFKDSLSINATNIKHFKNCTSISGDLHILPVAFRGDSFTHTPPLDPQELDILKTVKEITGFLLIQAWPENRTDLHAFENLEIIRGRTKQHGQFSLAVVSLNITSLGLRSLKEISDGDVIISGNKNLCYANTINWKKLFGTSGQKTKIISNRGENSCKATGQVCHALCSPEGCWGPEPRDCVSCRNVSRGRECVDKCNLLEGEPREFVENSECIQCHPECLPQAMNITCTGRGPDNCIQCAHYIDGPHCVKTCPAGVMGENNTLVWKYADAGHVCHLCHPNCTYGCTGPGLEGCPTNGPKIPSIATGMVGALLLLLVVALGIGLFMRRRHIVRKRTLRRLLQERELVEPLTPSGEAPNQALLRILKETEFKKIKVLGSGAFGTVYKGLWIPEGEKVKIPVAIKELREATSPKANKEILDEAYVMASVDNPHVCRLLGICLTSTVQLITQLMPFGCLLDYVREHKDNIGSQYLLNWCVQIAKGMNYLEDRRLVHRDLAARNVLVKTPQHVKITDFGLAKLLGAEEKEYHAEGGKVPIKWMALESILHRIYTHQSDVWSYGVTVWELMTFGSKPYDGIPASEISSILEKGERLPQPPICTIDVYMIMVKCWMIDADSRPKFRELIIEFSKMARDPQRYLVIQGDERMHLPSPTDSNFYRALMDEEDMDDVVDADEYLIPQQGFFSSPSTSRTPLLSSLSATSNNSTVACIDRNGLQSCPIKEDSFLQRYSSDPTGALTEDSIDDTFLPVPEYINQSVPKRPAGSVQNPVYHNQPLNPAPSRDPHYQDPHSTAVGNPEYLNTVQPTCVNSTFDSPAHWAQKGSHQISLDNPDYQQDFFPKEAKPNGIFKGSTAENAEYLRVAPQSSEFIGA

ICW Screen (ICW Inhibition)	Structure (SMILES)	also measured
27.713	CC(=O)NS(=O)(=O)c1ccc(NC(=S)NC(=O)Cc2cccc3ccccc23)cc1 [AD4-12071]	–
26.671	Cc1cc(C)nc(NS(=O)(=O)c2ccc(NC(=S)NC(=O)C3CCCC3)cc2)n1 [AD4-12163]	–
27.431	COc1cc(OC)nc(NS(=O)(=O)c2ccc(NC(=S)NC(=O)C3CCCC3)cc2)n1 [AD4-11536]	–
25.368	CN(C1CCCCC1)S(=O)(=O)c1ccc(NC(=S)NC(=O)C2CC2)cc1 [AD4-11986]	–
26.355	COc1ccc(NS(=O)(=O)c2ccc(NC(=S)NC(=O)/C=C/c3ccccc3)cc2)nn1 [AD4-11888]	–
–	Cc1cc2oc(=O)cc(CN3CCN(CCO)CC3)c2cc1C [AD4-10176]	ICW Screen: 42.066
26.73	C=CCN(CC=C)S(=O)(=O)c1ccc(NC(=S)NC(=O)/C=C/c2ccc(F)cc2)cc1 [AD4-12157]	–
27.18	COc1ccc(NS(=O)(=O)c2ccc(NC(=S)NC(=O)C(C)(C)C)cc2)cc1 [AD4-11994]	–
26.301	COc1ccc(CC(=O)NC(=S)Nc2ccc(S(=O)(=O)Nc3nc(C)cc(C)n3)cc2)cc1 [AD4-11395]	–
28.127	COc1cc(NS(=O)(=O)c2ccc(NC(=S)NC(=O)CCc3ccc(F)cc3)cc2)ncn1 [AD4-11384]	–
–	CCCc1c[nH]c(Nc2nc(C)c3ccccc3n2)nc1=O [compound 12662]	ICW Avg: 25.21; ICW 1: 21.64; ICW 2: 28.79
29.295	CC(=O)NC(=S)Nc1ccc(S(=O)(=O)N2CCc3ccccc32)cc1 [AD4-10103]	–
29.977	CN(Cc1ccccc1)S(=O)(=O)c1ccc(NC(=S)NC(=O)C2CCCC2)cc1 [AD4-12039]	–
26.967	O=C(CCc1ccccc1)NC(=S)Nc1ccc(S(=O)(=O)N2CCOCC2)cc1 [AD4-12147]	–
26.098	COc1ccc(NS(=O)(=O)c2ccc(NC(=S)NC(=O)C3CCCC3)cc2)cc1 [AD4-11523]	–
28.852	CC(C)C(=O)NC(=S)Nc1ccc(S(=O)(=O)N(C)Cc2ccccc2)cc1 [AD4-12051]	–
–	Cc1cc(C)c2nc(Nc3nc(C)cc(=O)[nH]3)nc(C)c2c1 [11607 + TFA]	ICW Avg: 42.71; ICW 1: 43.69; ICW 2: 41.73
26.918	CC(C)(C)NS(=O)(=O)c1ccc(NC(=S)NC(=O)C2CCC2)cc1 [AD4-11976]	–
26.851	COc1ccc(CC(=O)NC(=S)Nc2ccc(S(=O)(=O)N3CCOCC3)cc2)cc1 [AD4-11406]	–
–	CCc1ccc2oc(=O)cc(CN3CCN(CCO)CC3)c2c1 [AD4-10178]	ICW Screen: 34.907

ICW Screen (ICW Inhibition)	Structure (SMILES)	also measured
30.242	CCc1nnc(NS(=O)(=O)c2ccc(NC(=S)NC(=O)/C=C/c3ccccc3)cc2)s1 [AD4-11861]	–
30.052	CN1CCN(S(=O)(=O)c2ccc(NC(=S)NC(=O)c3ccccc3)cc2)CC1 [AD4-11420]	–
28.101	CN(Cc1ccccc1)S(=O)(=O)c1ccc(NC(=S)NC(=O)C2CCCCC2)cc1 [AD4-11410]	–
28.892	CCc1nnc(NS(=O)(=O)c2ccc(NC(=S)NC(=O)C34CC5CC(CC(C5)C3)C4)cc2)s1 [AD4-11385]	–
27.176	CN1CCN(S(=O)(=O)c2ccc(NC(=S)NC(=O)C3CCCC3)cc2)CC1 [AD4-11973]	–
25.019	C=CCN(CC=C)S(=O)(=O)c1ccc(NC(=S)NC(=O)/C=C/c2ccccc2)cc1 [AD4-12092]	–
26.212	Cc1ccc(NS(=O)(=O)c2ccc(NC(=S)NC(=O)CCc3ccccc3)cc2)cc1C [AD4-12103]	–
26.497	COc1cc(NS(=O)(=O)c2ccc(NC(=S)NC(=O)CCc3ccccc3)cc2)nc(OC)n1 [AD4-11405]	–
25.611	CCOc1ccc(NS(=O)(=O)c2ccc(NC(=S)NC(=O)CC(C)C)cc2)cc1 [AD4-12014]	–
27.36	Cc1cc(NS(=O)(=O)c2ccc(NC(=S)NC(=O)/C=C/c3cccs3)cc2)no1 [AD4-11863]	–
25.347	COc1ccc(CC(=O)NC(=S)Nc2ccc(S(=O)(=O)NCCc3ccccc3)cc2)cc1 [AD4-10622]	–
27.585	CCN(c1ccccc1)S(=O)(=O)c1ccc(NC(=S)NC(=O)C2CCCCC2)cc1 [AD4-11407]	–
–	Cc1cc(C)c2nc(Nc3nc4c(c(=O)[nH]3)CCCC4)nc(C)c2c1 [11483 + TFA]	ICW Avg: 29.27; ICW 1: 29.55; ICW 2: 28.99
25.689	CCc1nnc(NS(=O)(=O)c2ccc(NC(=S)NC(=O)/C=C/c3ccc(C)cc3)cc2)s1 [AD4-11879]	–
28.422	CN1CCN(S(=O)(=O)c2ccc(NC(=S)NC(=O)CCc3ccccc3)cc2)CC1 [AD4-11424]	–
–	Cc1cc(-c2ccccc2)nc(Nc2nc(C)c3cc(C)c(C)cc3n2)n1 [compound 11309]	ICW Avg: 37.00; ICW 1: 33.31; ICW 2: 40.70
25.058	COc1ccc(CC(=O)NC(=S)Nc2ccc(S(=O)(=O)NC(C)(C)C)cc2)cc1 [AD4-12133]	–
25.191	O=C(NC(=S)Nc1ccc(S(=O)(=O)N2CCc3ccccc32)cc1)C1CCCC1 [AD4-12291]	–
25.557	Cc1ccc(OCC(=O)NC(=S)Nc2ccc(S(=O)(=O)N3CCOCC3)cc2)c(Br)c1 [AD4-11401]	–
